Measured values reported in ChEMBL document CHEMBL1201862, “PubChem BioAssay data set” (2004).
Calls of active or inactive are those of the source.

Legend:
[1] = target: Large T antigen (Simian virus 40, UniProt P03070); format: functional, Betapolyomavirus macacae;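 also: Confirmatory-stage PubChem screen for compounds that inhibit SV40 T antigen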
[2] = target: Luciferin 4-monooxygenase (Photinus pyralis, UniProt P08659); experiment: firefly luciferase enzyme inhibitors, dose response, biochemical, luminescence (AID 1891)
[3] = Luminescence Cell-Based Dose Confirmation HTS to Identify Inhibitors of Platelet Dense Granule Release. [Related pubchem assays: 1663 (Primary HTS), 1678 (Summary of Project)]; format: functional
[4] = target: T1, Rac GTPase-activating protein 1 (Homo sapiens, UniProt Q9H0H5); experiment: MgcRacGAP GTPase-activating activity inhibitors, confirmation, biochemical, ADP Hunter fluorescence, primary and confirmatory (AID 624330); format: functional
T1 sequence (Q9H0H5 whole entry): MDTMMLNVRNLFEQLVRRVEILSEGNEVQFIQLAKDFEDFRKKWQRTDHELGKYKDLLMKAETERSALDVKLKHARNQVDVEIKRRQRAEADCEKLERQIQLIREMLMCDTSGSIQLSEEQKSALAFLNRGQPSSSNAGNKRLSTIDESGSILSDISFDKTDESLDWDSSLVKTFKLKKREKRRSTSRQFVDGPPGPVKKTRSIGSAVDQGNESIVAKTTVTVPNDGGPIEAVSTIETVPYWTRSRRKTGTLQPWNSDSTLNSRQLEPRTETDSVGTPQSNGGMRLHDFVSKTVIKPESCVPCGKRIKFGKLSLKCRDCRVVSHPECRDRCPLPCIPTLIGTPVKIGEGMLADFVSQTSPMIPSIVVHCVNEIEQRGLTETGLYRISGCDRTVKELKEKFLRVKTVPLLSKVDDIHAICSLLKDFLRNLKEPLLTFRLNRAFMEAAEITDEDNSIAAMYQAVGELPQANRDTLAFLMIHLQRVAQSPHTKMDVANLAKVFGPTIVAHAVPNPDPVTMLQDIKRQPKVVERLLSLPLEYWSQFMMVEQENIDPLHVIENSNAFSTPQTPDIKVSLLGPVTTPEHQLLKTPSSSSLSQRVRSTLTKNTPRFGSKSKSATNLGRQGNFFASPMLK

[5] = target: T2, Cytochrome P450 1A2 (Homo sapiens, UniProt P05177);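 also: PubChem cytochrome P450 panel assay, CYP1A2 panel member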
T2 sequence (P05177 whole entry): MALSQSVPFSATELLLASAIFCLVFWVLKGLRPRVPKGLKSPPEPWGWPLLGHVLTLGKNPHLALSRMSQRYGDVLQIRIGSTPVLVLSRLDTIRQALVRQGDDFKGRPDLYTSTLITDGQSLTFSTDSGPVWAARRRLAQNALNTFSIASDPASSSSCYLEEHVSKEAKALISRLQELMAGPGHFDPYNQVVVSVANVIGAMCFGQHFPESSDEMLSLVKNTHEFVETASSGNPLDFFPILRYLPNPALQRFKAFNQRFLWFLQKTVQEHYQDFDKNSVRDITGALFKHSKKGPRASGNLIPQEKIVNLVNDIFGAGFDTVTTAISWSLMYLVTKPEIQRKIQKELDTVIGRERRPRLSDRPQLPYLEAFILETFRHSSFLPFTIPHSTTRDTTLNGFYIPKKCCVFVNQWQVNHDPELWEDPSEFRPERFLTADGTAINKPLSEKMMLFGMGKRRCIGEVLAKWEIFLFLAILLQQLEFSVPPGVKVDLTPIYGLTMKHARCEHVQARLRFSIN

[6] = target: Cytochrome P450 2C9 (Homo sapiens, UniProt P11712)
[7] = target: Cytochrome P450 3A4 (Homo sapiens, UniProt P08684);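 also: CYP3A4 tested as one member of a cytochrome P450 panel screen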
[8] = target: T3, Replicative DNA helicase DnaB (Mycobacterium tuberculosis, UniProt P9WMR3); experiment: DnaB intein splicing inhibitors, dose response, biochemical, cell-free fluorescence (AID 449749); format: functional
T3 sequence (P9WMR3 whole entry): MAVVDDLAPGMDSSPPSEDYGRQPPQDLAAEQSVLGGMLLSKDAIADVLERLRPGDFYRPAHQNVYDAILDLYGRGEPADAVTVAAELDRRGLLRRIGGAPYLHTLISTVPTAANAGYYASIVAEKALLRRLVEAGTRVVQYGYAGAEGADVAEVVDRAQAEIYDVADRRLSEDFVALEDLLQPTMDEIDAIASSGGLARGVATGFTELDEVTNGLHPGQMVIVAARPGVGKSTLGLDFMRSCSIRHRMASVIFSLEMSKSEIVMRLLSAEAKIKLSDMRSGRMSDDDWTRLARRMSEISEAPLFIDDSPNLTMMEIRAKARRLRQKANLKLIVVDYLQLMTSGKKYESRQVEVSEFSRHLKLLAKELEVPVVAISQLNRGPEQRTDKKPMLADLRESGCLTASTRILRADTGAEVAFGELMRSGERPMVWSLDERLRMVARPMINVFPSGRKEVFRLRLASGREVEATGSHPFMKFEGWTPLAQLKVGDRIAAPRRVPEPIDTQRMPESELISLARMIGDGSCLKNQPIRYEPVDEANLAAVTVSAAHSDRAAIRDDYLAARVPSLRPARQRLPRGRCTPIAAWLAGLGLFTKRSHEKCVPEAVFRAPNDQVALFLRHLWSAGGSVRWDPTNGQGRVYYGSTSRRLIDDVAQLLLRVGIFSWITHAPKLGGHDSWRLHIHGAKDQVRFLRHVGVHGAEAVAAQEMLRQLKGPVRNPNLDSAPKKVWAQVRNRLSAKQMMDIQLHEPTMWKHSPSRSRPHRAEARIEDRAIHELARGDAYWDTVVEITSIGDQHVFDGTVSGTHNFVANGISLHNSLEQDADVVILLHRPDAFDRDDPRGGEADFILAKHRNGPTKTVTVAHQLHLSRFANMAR

[9] = target: T4, Protein RecA (Mycobacterium tuberculosis, UniProt P9WHJ3); experiment: Fluorescence Cell-Free Homogeneous Dose Retest to Identify Inhibitors of RecA-Intein Splicing Activity. [Related pubchem assays (depositor defined):AID2097, AID2223, AID489010, AID492950]; format: functional
T4 sequence (P9WHJ3 whole entry): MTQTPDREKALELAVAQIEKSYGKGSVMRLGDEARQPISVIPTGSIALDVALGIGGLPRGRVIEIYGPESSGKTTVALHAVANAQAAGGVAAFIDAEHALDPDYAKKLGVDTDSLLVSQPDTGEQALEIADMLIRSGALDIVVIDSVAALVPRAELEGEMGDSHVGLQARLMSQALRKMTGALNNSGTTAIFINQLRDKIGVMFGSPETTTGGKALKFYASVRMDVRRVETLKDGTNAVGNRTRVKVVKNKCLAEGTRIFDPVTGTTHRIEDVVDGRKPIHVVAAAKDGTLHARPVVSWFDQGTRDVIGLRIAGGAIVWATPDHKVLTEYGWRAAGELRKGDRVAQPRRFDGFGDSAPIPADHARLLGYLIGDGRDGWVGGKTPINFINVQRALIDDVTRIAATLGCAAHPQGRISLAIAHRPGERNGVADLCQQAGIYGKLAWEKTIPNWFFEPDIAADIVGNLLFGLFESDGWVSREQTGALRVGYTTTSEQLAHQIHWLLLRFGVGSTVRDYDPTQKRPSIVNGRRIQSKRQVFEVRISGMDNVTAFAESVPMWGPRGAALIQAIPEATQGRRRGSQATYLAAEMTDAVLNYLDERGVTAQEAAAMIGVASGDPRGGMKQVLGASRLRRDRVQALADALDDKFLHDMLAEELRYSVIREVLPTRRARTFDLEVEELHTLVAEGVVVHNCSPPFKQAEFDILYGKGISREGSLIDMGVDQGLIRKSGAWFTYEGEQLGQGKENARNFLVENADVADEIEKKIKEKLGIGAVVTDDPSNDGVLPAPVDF

[10] = target: Cytochrome P450 2D6 (Homo sapiens, UniProt P10635);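 also: CYP2D6 member of a cytochrome P450 panel assay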
[11] = target: T5, Short transient receptor potential channel 4 (Mus musculus, UniProt Q9QUQ5); experiment: mouse TRPC4 channel activators, dose response, cell-based, HEK293 TRPC4/mu-opioid, Fluo-4 calcium (AID 434937); format: functional
T5 sequence (Q9QUQ5 whole entry): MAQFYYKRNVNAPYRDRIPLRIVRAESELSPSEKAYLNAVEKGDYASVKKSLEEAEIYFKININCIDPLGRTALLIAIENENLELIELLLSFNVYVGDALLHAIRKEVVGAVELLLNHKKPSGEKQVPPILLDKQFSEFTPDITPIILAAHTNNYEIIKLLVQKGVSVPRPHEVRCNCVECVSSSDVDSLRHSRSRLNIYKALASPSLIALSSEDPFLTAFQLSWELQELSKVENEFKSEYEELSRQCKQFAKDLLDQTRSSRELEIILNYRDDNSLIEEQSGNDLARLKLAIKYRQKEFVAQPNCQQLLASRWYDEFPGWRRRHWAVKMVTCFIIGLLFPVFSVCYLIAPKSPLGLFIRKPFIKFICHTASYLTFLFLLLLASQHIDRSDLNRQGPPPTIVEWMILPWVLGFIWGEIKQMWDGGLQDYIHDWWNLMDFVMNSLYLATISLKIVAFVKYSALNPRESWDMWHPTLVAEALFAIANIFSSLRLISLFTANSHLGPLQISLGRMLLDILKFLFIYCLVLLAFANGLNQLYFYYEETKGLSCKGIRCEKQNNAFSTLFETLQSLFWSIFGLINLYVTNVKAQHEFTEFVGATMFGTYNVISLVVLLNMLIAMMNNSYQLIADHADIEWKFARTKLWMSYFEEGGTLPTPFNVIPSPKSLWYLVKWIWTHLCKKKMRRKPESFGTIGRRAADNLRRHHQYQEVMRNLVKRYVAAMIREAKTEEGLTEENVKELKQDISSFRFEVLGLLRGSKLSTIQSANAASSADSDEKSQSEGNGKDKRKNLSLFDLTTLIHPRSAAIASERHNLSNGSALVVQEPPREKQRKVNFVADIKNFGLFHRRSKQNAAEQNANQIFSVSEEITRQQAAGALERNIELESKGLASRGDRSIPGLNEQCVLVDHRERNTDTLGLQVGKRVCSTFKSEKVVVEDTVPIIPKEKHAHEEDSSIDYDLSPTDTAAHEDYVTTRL

[12] = inhibitors of firefly luciferase expression or activity, dose response, H4 neuroglioma cells, luminescence (AID 1990); format: functional, cell-based
[13] = Luminescence Cell-Based Dose Response HTS to Identify Inhibitors of 5'UTR Stem-Loop Driven Prion Protein mRNA Translation in H4 Neuroglioblastoma Cells. [Related pubchem assays: 1827 (Project Summary), 1813 (Primary HTS)]; format: functional
[14] = inhibitors of SNCA 5'UTR-driven reporter translation, confirmation, H4 neuroglioma cells, luminescence (AID 1988); format: functional, cell-based
[15] = target: T6, Microphthalmia-associated transcription factor (Homo sapiens, UniProt O75030); experiment: TRPM1 promoter luciferase signal decrease, dose response, MITF inhibitor project, cell-based, SK-MEL-5, cherry-picked, set 3 (AID 493073); format: functional
T6 sequence (O75030 whole entry): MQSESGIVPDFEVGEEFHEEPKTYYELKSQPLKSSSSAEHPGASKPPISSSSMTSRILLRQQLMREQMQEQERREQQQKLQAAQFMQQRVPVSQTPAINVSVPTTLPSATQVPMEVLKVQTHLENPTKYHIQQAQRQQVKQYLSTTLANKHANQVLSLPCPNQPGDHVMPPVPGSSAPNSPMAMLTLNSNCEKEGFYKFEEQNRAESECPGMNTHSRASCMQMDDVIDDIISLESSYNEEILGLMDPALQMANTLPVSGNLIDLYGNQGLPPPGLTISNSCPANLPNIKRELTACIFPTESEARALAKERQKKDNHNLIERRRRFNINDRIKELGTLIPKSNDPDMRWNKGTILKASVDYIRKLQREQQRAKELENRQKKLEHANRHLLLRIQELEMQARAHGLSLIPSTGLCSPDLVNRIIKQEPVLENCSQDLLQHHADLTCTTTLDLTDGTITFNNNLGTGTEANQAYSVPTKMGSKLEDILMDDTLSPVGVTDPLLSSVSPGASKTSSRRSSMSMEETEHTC

[16] = NIH-3T3 fibroblast cytotoxicity, dose response, cytotoxicity control, cell-based, fluorescence, Alamar Blue, secondary assay (AID 2327); format: functional;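 also: NIH-3T3 mouse fibroblasts cultured with fluconazole at 8 µg/mL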
[17] = C. albicans growth with fluconazole, confirmation, fluorescence, retest (AID 2467); format: functional, cell-based
[18] = growth suppression of PTEN-null colon cells, dose response, cell-based, HCT116 PTEN knockout (AID 1047); format: functional;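 also: HCT116 colon tumor cells with PTEN knocked out; cells exposed to compound for 60 hours before readout; potency for loss of cell viability measured by luminescence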
[19] = growth suppression of beta-catenin-knockout colon cells, dose response, cell-based, HCT116, human colon tumor (AID 1045); format: functional;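 also: HCT116 colon tumor cells with beta catenin knocked out; cells exposed to compound for 60 hours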
[20] = tested on: INS1; experiment: beta cell apoptosis inhibitors, cytokine rescue, dose response, luminescence, retest (AID 449756); format: functional, cell-based; settings: Rattus norvegicus;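 also: cell death triggered by IL-1 beta plus TNF-alpha plus IFN-gamma mixture; protective hits raise ATP signal compared with cytokine alone wells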

Chain of Cytochrome P450 2C9 (P11712 whole entry): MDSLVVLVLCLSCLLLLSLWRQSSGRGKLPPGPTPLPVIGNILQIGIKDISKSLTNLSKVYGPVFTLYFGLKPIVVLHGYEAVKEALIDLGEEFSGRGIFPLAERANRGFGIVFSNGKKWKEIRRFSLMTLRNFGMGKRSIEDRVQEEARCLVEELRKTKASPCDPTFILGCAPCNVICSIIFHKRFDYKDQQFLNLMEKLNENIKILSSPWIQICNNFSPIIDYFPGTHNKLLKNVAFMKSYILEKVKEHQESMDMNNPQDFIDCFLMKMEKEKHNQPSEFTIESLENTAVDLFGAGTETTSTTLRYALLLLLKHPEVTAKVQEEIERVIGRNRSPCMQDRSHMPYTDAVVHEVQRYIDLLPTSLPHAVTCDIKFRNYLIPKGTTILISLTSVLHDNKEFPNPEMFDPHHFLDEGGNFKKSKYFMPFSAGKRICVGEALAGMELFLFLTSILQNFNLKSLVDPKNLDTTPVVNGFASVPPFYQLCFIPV
Chain of Cytochrome P450 3A4 (P08684 whole entry): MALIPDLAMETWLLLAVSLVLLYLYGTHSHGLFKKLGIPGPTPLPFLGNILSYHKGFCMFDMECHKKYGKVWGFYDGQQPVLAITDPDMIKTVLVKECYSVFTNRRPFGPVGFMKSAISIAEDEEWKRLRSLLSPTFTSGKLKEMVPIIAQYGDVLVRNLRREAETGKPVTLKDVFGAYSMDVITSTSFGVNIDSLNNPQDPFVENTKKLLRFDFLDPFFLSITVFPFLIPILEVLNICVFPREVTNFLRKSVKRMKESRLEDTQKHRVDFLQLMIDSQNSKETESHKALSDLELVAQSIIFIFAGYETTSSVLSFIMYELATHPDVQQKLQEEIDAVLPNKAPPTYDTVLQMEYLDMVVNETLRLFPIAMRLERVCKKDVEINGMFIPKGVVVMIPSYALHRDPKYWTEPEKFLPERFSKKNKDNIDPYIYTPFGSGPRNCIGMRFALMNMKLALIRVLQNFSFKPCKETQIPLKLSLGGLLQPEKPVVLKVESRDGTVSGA
Chain of Luciferin 4-monooxygenase (P08659 whole entry): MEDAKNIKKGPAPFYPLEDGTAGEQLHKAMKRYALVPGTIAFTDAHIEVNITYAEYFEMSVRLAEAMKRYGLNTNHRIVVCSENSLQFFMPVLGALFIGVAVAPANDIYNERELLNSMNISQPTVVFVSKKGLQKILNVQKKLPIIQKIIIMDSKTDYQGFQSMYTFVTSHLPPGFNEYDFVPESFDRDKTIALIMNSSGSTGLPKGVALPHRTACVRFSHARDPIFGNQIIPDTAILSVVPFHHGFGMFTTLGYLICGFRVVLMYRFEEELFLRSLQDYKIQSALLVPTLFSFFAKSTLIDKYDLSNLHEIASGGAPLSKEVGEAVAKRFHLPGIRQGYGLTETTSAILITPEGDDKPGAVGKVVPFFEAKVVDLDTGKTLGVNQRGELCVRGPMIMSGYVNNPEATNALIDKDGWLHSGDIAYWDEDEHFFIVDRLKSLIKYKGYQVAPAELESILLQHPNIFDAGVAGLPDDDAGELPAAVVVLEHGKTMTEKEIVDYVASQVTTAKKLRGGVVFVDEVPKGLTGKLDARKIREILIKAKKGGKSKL
Chain of Cytochrome P450 2D6 (P10635 whole entry): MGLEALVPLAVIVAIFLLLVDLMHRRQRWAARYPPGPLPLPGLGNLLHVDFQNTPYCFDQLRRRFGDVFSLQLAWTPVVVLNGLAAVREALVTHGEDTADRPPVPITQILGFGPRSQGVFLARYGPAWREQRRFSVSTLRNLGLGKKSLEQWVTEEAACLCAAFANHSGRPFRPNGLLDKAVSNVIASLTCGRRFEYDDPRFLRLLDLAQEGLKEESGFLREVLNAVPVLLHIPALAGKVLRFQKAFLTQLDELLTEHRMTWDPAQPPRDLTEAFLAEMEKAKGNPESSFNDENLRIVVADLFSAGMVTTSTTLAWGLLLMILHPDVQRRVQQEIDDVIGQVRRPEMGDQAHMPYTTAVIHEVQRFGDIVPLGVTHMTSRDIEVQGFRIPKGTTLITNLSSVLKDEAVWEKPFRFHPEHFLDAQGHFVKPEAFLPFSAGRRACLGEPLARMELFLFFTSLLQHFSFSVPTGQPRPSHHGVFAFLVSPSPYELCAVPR
Chain of Large T antigen (P03070 whole entry): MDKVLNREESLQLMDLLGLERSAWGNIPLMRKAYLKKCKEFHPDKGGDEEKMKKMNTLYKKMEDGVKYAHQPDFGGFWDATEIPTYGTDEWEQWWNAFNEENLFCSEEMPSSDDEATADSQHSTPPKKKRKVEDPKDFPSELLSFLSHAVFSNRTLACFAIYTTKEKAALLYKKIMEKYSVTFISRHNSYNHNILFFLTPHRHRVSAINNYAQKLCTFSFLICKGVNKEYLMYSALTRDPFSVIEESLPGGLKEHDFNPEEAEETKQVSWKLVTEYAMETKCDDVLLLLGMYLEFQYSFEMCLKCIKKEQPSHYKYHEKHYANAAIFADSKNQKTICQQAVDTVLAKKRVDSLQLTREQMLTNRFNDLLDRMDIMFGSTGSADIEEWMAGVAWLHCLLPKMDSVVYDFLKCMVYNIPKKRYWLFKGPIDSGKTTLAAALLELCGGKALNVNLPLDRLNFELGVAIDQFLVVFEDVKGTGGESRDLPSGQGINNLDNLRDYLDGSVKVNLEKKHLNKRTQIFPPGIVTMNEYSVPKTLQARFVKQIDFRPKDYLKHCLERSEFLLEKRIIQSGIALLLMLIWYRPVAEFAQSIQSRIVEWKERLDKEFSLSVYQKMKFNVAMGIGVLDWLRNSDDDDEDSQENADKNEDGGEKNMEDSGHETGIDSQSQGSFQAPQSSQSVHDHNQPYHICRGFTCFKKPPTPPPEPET

COc1cc(/C=N/N=C(\N)c2nonc2N)ccc1O
IC50 [1]: 12.2 µM (active) | EC50 [2]: 52.8 µM (active) | EC50 [3]: 7.47 µM (active) | IC50 [4]: 18.9 µM (active)

Cc1csc(NC(=O)CCNS(=O)(=O)c2ccc3c(c2)c(=O)n(C)c(=O)n3C)n1
AC50 [5]: 0.00631 µM (inconclusive) | AC50 [6]: inconclusive

COc1cc(/C=C/C(=O)N2CCN(CC(O)COc3ccccc3)CC2)cc(OC)c1OC.Cl (centres undefined)
AC50 [7]: 10 µM (inconclusive) | AC50 [6]: inconclusive

CCC(CC)C(=O)NCc1ccc2c(c1)cc(C)n2C
AC50 [8]: > 380 µM (inactive) | EC50 [9]: > 380 µM (inactive) | AC50 [10]: 31.6 µM (inconclusive) | AC50 [6]: inconclusive

C=CCSc1nc(C)cc(/C=C\c2ccccc2)c1C#N
AC50 [6]: inconclusive

C=CCn1c(CCNC(=O)C(C)(C)C)nc2ccccc21
EC50 [11]: 3.76 µM (active)

COc1ccccc1CN1CC[C@@]2(CCCN(C(=O)c3c(C)noc3C)C2)C1
AC50 [6]: inconclusive

O=C(Nc1ccc(S(=O)(=O)N2CCCCCC2)cc1)c1n[nH]cc1[N+](=O)[O-]
EC50 [12]: 6.09 µM (active) | EC50 [13]: 53.1 µM (active) | EC50 [14]: 8.3 µM (active) | AC50 [15]: 4.02 µM (active)

O=C(NCCc1ccccn1)c1ccc(COc2ccccc2)o1
EC50 [11]: 4.73 µM (active)

COc1cccc(C(=O)Oc2c(CN3CCOCC3)cc(Cl)c3cccnc23)c1
EC50 [16]: > 75 µM (inactive) | EC50 [17]: 1.83 µM (active) | EC50 [18]: 3.38 µM (active) | EC50 [19]: 2.48 µM (active) | AC50 [15]: 9.9 µM (active) | AC50 [20]: 4.85 µM (active)

O=C(Nc1cccc(F)c1)N1CC2(CCN(C(=O)c3cc(C(F)(F)F)cc(C(F)(F)F)c3)CC2)C1
AC50 [7]: 39.8 µM (inconclusive) | AC50 [6]: inconclusive

Cc1ccc(NC(=O)NCC(c2ccccc2)N(C)C)cc1 (centres undefined)
EC50 [11]: 0.004 µM (active)
